{
  "source": "paper PMC5855801",
  "about": "“Benzothiophenone Derivatives Targeting Mutant Forms of Estrogen Receptor-α in Hormone-Resistant Breast Cancers” (International Journal of Molecular Sciences, 2018)",
  "key": {"[1]": {"system": "pS2, PR, Cyclin D1 and CDC2 proteins", "test": "Western blotting in TamR3 cells", "assay_type": "cell-based, human", "settings": "TamR3, 24 h, effect at higher doses", "method": "Serum-starved MCF7 and TamR3 cells were seeded onto a six-well plate at a density of 6 × 10^5 cells/well and treated the following day with VPC-16606 in the presence of 1 nM E2. One micromolar OHT was used as the positive control. After 24 h, cells were lysed in 1× radioimmunoprecipitation assay (RIPA) buffer. Twenty five micrograms of protein were loaded into SDS-PAGE gels and transferred to PVDF membranes. Membranes were incubated with pS2, PR Cyclin D1 and CDC2 antibodies or control α-actin antibody. Bound antibodies were detected using HRP-conjugated secondary antibodies. Chemiluminescence was detected with an Amersham ECL detection kit (GE Healthcare Life Sciences, Chicago, IL, USA), and bands were visualised using the G:BOX imager (Syngene, Cambridge, UK)."}, "[2]": {"system": "ERα binding to the pS2 enhancer", "test": "Chromatin immunoprecipitation (ChIP) in MCF7 cells", "assay_type": "cell-based, human", "settings": "MCF7, 6 μM, 24 h, 1 nM E2, compared to E2 alone", "method": "To test this hypothesis, we performed chromatin immunoprecipitation (ChIP) assays in MCF7 cells. The cells were treated for 24 h with vehicle and E2 either alone or in combination with VPC-16606.\nE2-deprived MCF7 cells (1 × 10^7 cells per 10 cm plate) were treated for 24 h with DMSO alone, DMSO + E2 or compound + E2. One percent formaldehyde was added for 10 min at room temperature to perform DNA-protein crosslinking and quenched by treatment with 125 mM glycine for 5 min. Cell lysates sonicated with Sonic Dismembrator 550 instrument (Thermo Fisher Scientific, Waltham, MA, USA) to yield DNA fragments of 200–1000 bp in size. Lysates (from 3.3 × 10^6 cells) were immunoprecipitated with […] of anti-ERα antibody or […] of rabbit isotype control IgG (Santa Cruz Biotechnology, Dallas, TX, USA) using the EZ-ChIP chromatin immunoprecipitation kit (Millipore, Billerica, MA, USA). Bound DNA was quantified by qPCR (SYBR Green master mix, Invitrogen, Carlsbad, CA, USA) using the following primer sets: pS2 enhancer, forward 5′-[…]-3′ and reverse 5′-AGGGCGTGACACCAGGAAA-3′; GAPDH promoter, forward 5′-[…]-3′ and reverse 5′-TCGAACAGGAGCAGA GAGCGA-3′. The qPCR results are presented as fold enrichment of PCR amplification over control IgG antibody and normalized based on the total input (no precipitated chromatin). Primers for the GAPDH promoter were used as a negative control."}, "androgen receptor (AR)": {"molecular_target": "T1, androgen receptor (AR) (Homo sapiens, UniProt P10275)", "T1 construct": "expressed in transfected cells; host or cells: PC3", "T1 sequence (P10275 1-920)": "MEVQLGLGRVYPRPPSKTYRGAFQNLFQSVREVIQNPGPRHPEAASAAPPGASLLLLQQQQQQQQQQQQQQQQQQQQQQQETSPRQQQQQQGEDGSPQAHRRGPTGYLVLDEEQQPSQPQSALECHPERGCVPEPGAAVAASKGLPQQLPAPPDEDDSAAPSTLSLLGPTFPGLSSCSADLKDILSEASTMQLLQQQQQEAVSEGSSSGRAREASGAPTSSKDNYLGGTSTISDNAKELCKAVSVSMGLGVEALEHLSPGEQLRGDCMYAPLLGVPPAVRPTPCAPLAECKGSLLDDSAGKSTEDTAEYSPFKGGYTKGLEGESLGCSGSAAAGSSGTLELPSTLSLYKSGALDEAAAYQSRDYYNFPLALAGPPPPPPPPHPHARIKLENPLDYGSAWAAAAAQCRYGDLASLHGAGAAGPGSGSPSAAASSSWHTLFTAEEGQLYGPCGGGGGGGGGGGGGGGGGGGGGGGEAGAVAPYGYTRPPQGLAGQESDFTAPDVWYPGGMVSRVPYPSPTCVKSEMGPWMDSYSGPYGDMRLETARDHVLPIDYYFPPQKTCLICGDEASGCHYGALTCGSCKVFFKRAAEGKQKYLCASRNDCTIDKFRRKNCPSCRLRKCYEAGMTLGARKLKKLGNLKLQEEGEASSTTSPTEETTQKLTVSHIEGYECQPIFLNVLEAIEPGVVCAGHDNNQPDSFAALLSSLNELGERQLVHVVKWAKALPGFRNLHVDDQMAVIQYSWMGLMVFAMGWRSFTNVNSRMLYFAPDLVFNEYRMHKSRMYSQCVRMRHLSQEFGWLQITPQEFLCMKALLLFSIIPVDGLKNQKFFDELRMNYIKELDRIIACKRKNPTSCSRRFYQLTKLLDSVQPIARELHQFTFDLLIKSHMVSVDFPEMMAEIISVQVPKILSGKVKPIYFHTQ", "test": "Luciferase reporter selectivity assay in PC3 cells, AR", "assay_type": "cell-based", "settings": "24 h", "method": "Figure 4 Further activity profile of VPC-16606. (A,B) Chromatin immunoprecipitation (ChIP) analysis of ERα binding to the pS2 enhancer, or the GAPDH promoter, in MCF7 cells. Where indicated, ERα was stimulated with 1 nM E2 or dimethyl sulfoxide (DMSO) alone, and the compound was administered at a 6 μM concentration. Sheared chromatin-protein complexes were precipitated with the ERα antibody, reverse cross-linked and analyzed by quantitative PCR. The results are normalized as fold enrichment over precipitation with a rabbit isotype control IgG antibody for each condition tested. Error bars indicate standard error of the mean (SEM) for 3 independent experiments performed in triplicates. Fold enrichment from the compound tested condition (ERα antibody) was statistically compared against DMSO + E2 with a two-tailed t-test (unpaired) *** indicates p-value <0.001. (C) Specificity of VPC-16606 was evaluated in the luciferase reporter assay. PC3 cells were transfected with plasmids expressing androgen receptor (AR), progesterone receptor (PR) or glucocorticoid receptor (GR) along with their responsive luciferase reporter constructs bearing androgen response element (ARE), progesterone response element (PRE) or glucocorticoid response element (GRE), respectively. […] Y-axis represents relative luminescence (RLU) after normalizing to constitutive renilla reporter. […]"}},
  "data": [
    {"smiles": "CC(=O)N(/N=C1\\Sc2c(C)cccc2C1=O)c1ccccc1Cl", "note": "[VPC-16606]", "values": [
      {"measurement": "Expression of pS2, PR, Cyclin D1 and CDC2 proteins (Western blot)", "setting": "[1]", "result": "decreased expression"},
      {"measurement": "ERα pull down of the promoter of pS2 (ChIP)", "setting": "[2]", "result": "significantly reduced"},
      {"measurement": "Effect on AR activity (luciferase)", "setting": "androgen receptor (AR); 50 µM", "result": "some effect"},
      {"measurement": "Effect on AR activity (luciferase)", "setting": "androgen receptor (AR); doses up to 25 µM", "result": "does not affect the activity"}
    ]}
  ]
}
